The values below come from EP4660184A1 (Eurofarma Laboratórios S.A., priority 2023, dated 2024).

Bounds are passed on as bounds.

Test [1] has as its target T1, human sodium channels Nav 1.7 (Homo sapiens, UniProt Q15858).
T1 construct: expressed in transfected cells
In words: Automated whole-cell voltage-clamp (ScreenPatch 384P) sodium current block, Nav 1.7. The class given is cell-based. Particulars: CHO cells stably expressing human Nav 1.7; inactivation step -40 mV for 8 seconds, test step 0 mV (TP1A); exposure at least five minutes; room temperature; mean if two or more assays; read-out: Nav1.7 IC50. As for the experimental part: (§1) Biological assays were performed on Chinese hamster ovary (CHO) cells that express human sodium channels Nav 1.8 or Nav 1.7 in a stable manner.
(§2) The experimental protocol voltage-clamp using the whole cell configuration was established on the automated ScreenPatch® 384P platform (SP384PE, Nanion Technologies, Livingston, NJ) and the results were recorded with a Nanion 384-well Patch Clamp chip (NPC) (Nanion Technologies, Livingston, NJ).
(§3) Formula I compounds were diluted in eight concentrations in the extracellular solution composed of saline saline solution, buffered with HEPES (mM): NaCl, 137; KCl, 4; CaCl2, 3,8; MgCl2, 1; HEPES, 10; Glucose, 10; pH 7.4. The […], 50; CsF, 90; MgCl2, 5; EGTA, 5; HEPES, 10; pH 7.2. The duration of exposure of each compound with cells expressing Nav 1.7 or Nav 1.8 was at least five minutes and the assays were performed at room temperature.
(§4) The measurements of the sodium currents of Nav 1.8 and Nav 1.7 were obtained using the voltage protocol described below.
(§5) A holding voltage of -100 mV was established followed by an inactivation voltage step at -40 mV for 8 seconds, followed by a step of -100 mV for 20 ms, followed by a 20 ms step for 10 mV for Nav 1.8 or 0 mV for Nav 1.7 (TP1A) before returning to the holding voltage of -100 mV.
(§6) The protocol was repeated at a frequency of 0.05 Hz and the amplitude of the current was quantified throughout the recording of the TP1A phase. The variation in the amplitude of the peak current was evaluated according to the formula described below, after exposing the cells expressing the channels to each concentration of the different compounds: % Block = (1−(ITP1A,molecule/ITP1A,basal)×100%, [formula] wherein ITP1A,basal and ITP1A,molecule represent the peaks of sodium current input into TP1A before exposure to the compound and in the presence of the compound, respectively.
(§7) Data were obtained by nonlinear regression (nonlinear least squares) with XLfit for Excel (Microsoft, Redmond, WA).
(§8) The compounds were tested in at least one assay to obtain the value of CI50. For compounds that were tested in two or more assays, the results are described as the mean of the CI50 values.

In test [2] the target is T2, human sodium channels Nav 1.8 (Homo sapiens, UniProt Q9Y5Y9).
T2 construct: expressed in transfected cells
T2 sequence (Q9Y5Y9 whole entry): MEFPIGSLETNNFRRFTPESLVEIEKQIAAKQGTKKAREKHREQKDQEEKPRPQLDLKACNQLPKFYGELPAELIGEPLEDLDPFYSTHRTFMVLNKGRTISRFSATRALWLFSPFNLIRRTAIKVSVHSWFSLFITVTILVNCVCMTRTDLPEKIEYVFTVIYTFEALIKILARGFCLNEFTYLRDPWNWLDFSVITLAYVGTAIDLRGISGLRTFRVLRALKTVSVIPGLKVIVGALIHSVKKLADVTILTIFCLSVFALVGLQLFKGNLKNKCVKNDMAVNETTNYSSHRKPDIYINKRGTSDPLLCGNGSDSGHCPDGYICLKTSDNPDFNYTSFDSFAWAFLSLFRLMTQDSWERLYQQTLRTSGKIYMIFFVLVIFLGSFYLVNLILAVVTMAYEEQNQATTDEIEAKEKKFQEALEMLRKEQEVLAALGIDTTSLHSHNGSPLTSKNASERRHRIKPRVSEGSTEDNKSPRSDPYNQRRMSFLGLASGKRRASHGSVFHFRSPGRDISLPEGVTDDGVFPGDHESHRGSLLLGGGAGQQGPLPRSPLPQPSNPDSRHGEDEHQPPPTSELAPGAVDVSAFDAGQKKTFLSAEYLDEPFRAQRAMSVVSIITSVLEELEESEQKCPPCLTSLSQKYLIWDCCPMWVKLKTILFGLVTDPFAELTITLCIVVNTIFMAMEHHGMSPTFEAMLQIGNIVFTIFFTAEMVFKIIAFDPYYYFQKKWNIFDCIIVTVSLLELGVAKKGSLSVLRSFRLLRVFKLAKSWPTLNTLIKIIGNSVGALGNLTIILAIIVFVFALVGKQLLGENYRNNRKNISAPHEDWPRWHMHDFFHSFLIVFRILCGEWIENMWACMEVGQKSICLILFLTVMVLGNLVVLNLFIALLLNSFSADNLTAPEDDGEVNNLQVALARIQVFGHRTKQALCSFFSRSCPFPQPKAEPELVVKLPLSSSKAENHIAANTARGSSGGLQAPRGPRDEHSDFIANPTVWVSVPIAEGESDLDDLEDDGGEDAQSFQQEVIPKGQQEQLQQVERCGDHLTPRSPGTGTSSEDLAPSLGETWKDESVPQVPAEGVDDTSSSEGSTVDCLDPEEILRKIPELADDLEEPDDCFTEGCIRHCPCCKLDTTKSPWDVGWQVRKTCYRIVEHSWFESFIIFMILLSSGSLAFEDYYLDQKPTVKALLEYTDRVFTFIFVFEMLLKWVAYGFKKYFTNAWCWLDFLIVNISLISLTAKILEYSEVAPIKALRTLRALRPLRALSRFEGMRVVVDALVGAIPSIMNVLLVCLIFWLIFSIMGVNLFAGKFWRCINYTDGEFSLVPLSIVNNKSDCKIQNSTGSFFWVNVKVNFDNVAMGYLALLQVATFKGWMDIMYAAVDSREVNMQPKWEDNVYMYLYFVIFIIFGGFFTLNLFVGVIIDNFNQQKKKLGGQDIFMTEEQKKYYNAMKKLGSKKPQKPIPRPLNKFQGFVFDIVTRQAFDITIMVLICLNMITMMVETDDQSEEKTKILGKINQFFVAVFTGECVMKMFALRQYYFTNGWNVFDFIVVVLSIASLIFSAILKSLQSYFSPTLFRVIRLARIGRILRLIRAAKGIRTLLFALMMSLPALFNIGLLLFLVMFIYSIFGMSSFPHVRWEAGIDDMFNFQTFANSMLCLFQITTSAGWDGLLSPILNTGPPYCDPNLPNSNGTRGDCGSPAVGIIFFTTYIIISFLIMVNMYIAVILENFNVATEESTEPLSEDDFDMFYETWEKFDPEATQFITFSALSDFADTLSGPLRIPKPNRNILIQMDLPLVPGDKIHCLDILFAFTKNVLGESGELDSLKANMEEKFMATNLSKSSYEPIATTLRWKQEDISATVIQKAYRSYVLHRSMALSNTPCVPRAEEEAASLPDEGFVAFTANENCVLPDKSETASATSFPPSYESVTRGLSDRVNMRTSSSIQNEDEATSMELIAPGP
In words: Automated whole-cell voltage-clamp (ScreenPatch 384P) sodium current block, Nav 1.8. The class given is cell-based. As to conditions: CHO cells stably expressing human Nav 1.8; inactivation step -40 mV for 8 seconds, test step 10 mV (TP1A); exposure at least five minutes; room temperature; mean if two or more assays; read-out: Nav1.8 IC50. As for the experimental part:
as §1, §2, §3, §4, §5, §6, §7, §8

T1 sequence (Q15858 whole entry): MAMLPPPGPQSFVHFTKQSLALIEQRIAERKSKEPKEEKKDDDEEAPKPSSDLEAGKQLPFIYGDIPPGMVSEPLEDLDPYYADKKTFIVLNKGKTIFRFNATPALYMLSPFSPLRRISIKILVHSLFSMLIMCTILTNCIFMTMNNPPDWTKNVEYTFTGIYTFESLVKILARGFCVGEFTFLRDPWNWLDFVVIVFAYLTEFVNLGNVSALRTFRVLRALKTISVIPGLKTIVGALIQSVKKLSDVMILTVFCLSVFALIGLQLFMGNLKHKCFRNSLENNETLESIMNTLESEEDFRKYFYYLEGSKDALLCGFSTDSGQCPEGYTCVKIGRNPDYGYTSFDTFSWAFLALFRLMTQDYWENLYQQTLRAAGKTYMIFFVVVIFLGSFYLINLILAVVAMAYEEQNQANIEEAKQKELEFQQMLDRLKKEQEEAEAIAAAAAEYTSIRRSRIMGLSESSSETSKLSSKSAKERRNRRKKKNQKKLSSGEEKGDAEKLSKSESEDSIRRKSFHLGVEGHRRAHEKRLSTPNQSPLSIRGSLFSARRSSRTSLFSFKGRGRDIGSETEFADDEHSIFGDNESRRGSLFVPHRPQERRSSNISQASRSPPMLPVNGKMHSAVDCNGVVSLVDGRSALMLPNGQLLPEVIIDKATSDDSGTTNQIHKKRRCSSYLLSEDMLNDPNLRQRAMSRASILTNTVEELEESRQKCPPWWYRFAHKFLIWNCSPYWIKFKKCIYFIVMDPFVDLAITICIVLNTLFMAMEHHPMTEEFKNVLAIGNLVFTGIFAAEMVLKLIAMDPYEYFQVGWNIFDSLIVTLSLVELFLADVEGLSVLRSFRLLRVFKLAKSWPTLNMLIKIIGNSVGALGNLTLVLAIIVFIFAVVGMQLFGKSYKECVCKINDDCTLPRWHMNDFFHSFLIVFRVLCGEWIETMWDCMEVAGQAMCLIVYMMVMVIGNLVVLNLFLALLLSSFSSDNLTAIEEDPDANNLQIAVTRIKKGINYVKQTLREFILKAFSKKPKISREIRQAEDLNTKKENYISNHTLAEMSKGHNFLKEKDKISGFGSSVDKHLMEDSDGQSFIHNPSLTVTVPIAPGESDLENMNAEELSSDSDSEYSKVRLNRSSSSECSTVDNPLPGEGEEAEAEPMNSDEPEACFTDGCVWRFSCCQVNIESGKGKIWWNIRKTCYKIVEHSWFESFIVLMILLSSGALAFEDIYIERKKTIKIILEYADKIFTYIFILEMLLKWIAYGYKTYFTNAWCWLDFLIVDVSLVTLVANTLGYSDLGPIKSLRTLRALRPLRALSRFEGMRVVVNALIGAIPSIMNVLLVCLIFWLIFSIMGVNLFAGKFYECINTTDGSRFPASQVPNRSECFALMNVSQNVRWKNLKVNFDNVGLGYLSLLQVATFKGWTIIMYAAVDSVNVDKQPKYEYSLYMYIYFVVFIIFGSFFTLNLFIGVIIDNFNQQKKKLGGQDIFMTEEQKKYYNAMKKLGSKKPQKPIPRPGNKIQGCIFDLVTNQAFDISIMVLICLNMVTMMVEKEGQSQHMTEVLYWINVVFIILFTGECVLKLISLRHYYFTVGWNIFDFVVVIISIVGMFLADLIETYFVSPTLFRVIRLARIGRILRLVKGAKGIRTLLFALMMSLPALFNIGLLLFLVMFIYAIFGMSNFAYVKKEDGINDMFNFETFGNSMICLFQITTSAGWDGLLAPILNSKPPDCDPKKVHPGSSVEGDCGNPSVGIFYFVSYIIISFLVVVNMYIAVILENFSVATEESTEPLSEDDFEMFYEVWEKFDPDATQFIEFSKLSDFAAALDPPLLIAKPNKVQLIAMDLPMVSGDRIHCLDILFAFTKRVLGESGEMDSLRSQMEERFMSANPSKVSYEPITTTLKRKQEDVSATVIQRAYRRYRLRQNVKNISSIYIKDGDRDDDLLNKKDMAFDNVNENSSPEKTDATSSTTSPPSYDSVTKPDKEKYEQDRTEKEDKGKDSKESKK

On to `COc1ccc(F)c(CONC(=O)c2cncc(-c3ccc(O)cc3)n2)c1` [Compound 1, N-((2-fluoro-5-methoxybenzyl)oxy)-6-(4-hydroxyphenyl)pyrazine-2-carboxamide], for which the IC50 in test [1] and in test [2] was > 1 µM each time.
Consider `CCOc1ccc(-c2cncc(C(=O)NOCc3cc(OC)cnc3F)n2)cc1` [Compound 12, 6-(4-ethoxyphenyl)-N-((2-fluoro-5-methoxypyridine-3-yl)methoxy)pyrazine-2-carboxamide], for which the IC50 (usually the point on the concentration scale where inhibition reaches its midpoint) in test [1] is > 1 µM; in test [2], < 0.5 µM.
With `CCOc1ccc(-c2cncc(C(=O)NOCc3nccn3CC)n2)cn1` [Compound 61, 6-(6-ethoxypyridine-3-yl)-N-((1-ethyl-1H-imidazole-2-yl)methoxy)pyrazine-2-carboxamide], the IC50 in test [1] was > 1 µM; in test [2], < 0.5 µM.
The like results for `CCOc1ccc(-c2cncc(C(=O)NOCc3cc(OC)cnc3F)n2)cn1` [Compound 38, 6-(6-ethoxypyridine-3-yl)-N-((2-fluoro-5-methoxypyridine-3-yl)methoxy)pyrazine-2-carboxamide] were, in that order, > 1 µM and < 0.5 µM.
Take `CCOc1ccc(-c2cncc(C(=O)NOCc3cccc(OC)c3)n2)cc1` [Compound 5, 6-(4-ethoxyphenyl)-N-((3-methoxybenzyl)oxy)pyrazine-2-carboxamide]: the figures for the IC50 in test [1] and in test [2] were > 1 µM and < 0.5 µM, respectively.
Taken in the same sequence, the figures for `CCOc1ccc(-c2cnc(O)c(C(=O)NOCc3cc(OC)ccc3F)n2)cn1` [Compound 101] were > 1 µM and > 1 µM.
The like results for `CCOc1ccc(-c2cncc(C(=O)NOCc3cc(OC)ccc3C)n2)cn1` [Compound 47, 6-(6-ethoxypyridine-3-yl)-N-((5-methoxy-2-methylbenzyl)oxy)pyrazine-2-carboxamide] were, in that order, > 1 µM and > 1 µM.
Taken in the same sequence, the figures for `CCOc1ccc(-c2cncc(C(=O)NOCc3cc(OC)ccc3F)n2)c(OC)c1` [Compound 87] were > 1 µM and < 0.5 µM.
As for `COc1ccc(F)c(CONC(=O)c2cncc(-c3ccc(OC(F)(F)F)nc3)n2)c1` [Compound 76], the IC50 is 0.5 to 1 µM in test [1] and < 0.5 µM in test [2].
Take `CCOc1ccc(-c2cncc(C(=O)NOCc3cc(O)ccc3F)n2)cn1` [Compound 43, 6-(6-ethoxypyridine-3-yl)-N-((2-fluoro-5-hydroxybenzyl)oxy)pyrazine-2-carboxamide]: the IC50 in test [1] and in test [2] was > 1 µM throughout.
In the case of `CCOc1ccc(-c2cncc(C(=O)NOCc3cc(C(C)N)ccc3F)n2)cc1` (stereo not drawn) [Compound 17, N-((5-(1-aminoethyl)-2-fluorobenzyl)oxy)-6-(4-ethoxyphenyl)pyrazine-2-carboxamide], the IC50 in test [1] is > 1 µM; in test [2] it was < 0.5 µM.
The like results for `[2H]C([2H])([2H])COc1ccc(-c2cncc(C(=O)NOCc3cc(OC)ccc3F)n2)cn1` [Compound 49, 6-(6-(ethoxy-2,2,2-d3)pyridine-3-yl)-N-((2-fluoro-5-methoxybenzyl)oxy)pyrazine-2-carboxamide] were, in that order, > 1 µM and > 1 µM.
Regarding `COc1ccc(F)c(CONC(=O)c2cncc(-c3ccc(OC4CN(C)C4)cc3)n2)c1` [Compound 25, N-((2-fluoro-5-methoxybenzyl)oxy)-6-(4-((1-methylazetidine-3-yl)oxy)phenyl)pyrazine-2-carboxamide], the IC50 in test [1] is > 1 µM; in test [2] it was 0.5 to 1 µM.
Taken in the same sequence, the figures for `CCOc1ccc(-c2cncc(C(=O)NOCc3cccc(O)c3)n2)cn1` [Compound 35, 6-(6-ethoxypyridine-3-yl)-N-((3-hydroxybenzyl)oxy)pyrazine-2-carboxamide] were > 1 µM and < 0.5 µM.
Taken in the same sequence, the figures for `COc1cncc(CONC(=O)c2cncc(-c3ccc(OC(F)F)nc3)n2)c1` [Compound 82] were > 1 µM and > 1 µM.
